Data as given in patent publication US12581252B2, “Substituted pyrrolo[3,4-b]pyridines as PI3K-α inhibitors” (Relay Therapeutics, Inc., priority 2020, dated 2026).

Target: H1047R PIK3CA enzyme (Homo sapiens, UniProt P42336, H1047R)
Assay: ADP-Glo Biochemical PIK3CA Kinase Assay

H1047R PIK3CA enzyme, sequence (P42336 whole entry H1047R): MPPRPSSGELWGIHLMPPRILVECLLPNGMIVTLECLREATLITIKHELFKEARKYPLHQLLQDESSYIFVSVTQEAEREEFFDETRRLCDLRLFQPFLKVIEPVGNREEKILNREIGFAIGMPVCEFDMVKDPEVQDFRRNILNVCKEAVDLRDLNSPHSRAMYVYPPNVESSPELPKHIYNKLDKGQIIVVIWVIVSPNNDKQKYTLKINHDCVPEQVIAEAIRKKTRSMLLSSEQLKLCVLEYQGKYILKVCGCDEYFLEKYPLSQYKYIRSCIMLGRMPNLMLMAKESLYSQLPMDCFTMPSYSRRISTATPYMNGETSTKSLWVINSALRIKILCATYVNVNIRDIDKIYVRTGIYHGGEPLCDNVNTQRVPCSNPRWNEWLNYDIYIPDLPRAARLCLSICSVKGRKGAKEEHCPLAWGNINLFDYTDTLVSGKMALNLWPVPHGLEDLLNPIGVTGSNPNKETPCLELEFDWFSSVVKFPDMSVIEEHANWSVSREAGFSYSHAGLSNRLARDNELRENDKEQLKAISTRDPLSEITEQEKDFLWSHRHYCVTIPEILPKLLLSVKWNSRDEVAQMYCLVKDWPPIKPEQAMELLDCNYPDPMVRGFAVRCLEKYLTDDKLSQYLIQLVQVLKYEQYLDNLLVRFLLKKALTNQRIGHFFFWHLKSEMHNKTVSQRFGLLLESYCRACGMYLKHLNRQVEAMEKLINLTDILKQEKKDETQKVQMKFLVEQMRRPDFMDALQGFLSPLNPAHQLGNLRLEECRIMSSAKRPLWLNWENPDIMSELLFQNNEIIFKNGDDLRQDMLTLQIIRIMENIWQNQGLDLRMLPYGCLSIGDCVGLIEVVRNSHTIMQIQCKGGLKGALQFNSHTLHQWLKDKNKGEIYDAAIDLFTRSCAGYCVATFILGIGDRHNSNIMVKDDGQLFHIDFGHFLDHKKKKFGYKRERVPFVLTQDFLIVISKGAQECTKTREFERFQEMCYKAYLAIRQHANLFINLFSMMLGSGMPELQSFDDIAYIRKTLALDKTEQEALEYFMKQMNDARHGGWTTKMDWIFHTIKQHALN
H1047R PIK3CA enzyme, sequence (P27986 whole entry partner): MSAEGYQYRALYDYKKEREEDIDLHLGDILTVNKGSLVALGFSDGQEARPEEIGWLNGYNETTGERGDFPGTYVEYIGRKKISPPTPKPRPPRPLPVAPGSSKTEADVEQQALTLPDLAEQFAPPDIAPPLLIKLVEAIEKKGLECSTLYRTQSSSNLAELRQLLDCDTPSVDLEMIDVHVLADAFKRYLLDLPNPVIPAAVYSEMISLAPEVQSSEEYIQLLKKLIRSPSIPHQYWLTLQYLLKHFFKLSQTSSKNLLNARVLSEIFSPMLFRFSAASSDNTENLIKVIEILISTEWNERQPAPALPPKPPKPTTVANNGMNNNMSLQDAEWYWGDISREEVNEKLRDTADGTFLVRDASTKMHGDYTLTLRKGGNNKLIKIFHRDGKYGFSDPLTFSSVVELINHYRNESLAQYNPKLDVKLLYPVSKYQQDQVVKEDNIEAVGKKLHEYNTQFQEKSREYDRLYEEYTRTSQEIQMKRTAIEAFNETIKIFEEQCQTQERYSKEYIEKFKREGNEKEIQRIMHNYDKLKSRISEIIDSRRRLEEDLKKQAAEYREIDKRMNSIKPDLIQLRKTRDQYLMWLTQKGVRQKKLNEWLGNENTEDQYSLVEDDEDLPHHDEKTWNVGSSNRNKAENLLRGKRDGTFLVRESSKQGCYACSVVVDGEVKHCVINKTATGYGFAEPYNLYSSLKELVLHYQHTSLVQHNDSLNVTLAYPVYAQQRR

| IC50 | Compound |
| --- | --- |
| ≤ 0.1 µM | NS(=O)(=O)Cc1cc(NC(=O)c2cc(F)cc(C(F)(F)F)c2)c2c(c1)C(=O)NC2c1cc(F)ccc1Cl (stereo not shown) [Compound I-1367] |
| 10 to 100 µM | O=C1NC(c2cc(F)ccc2Cl)c2c(CO)cc(-c3ccc4ncnn4c3)cc21 (stereo not shown) [Compound I-1851] |
| 10 to 100 µM | O=C1N[C@@H](c2ccccc2Cl)c2c(NC(=O)N3C[C@@](O)(C(F)(F)F)c4cc(F)ccc43)cccc21 (single isomer, unassigned) [Compound I-2685] |
| 0.1 to 0.5 µM | O=C(Nc1cc(OC2CC(O)C2)cc2c1C(c1cc(F)ccc1Cl)NC2=O)c1cc(F)cc(C(F)(F)F)c1 (stereo not shown) [Compound I-1132] |
| ≤ 0.1 µM | O=C(Nc1cc(-c2ccc3cncn3c2)cc2c1C(c1cc(F)ccc1Cl)NC2=O)c1cc(F)cc(C(F)(F)F)c1 (stereo not shown) [Compound I-1500] |
| ≤ 0.1 µM | O=C(Nc1cc(NC2CC(F)(F)C2)nc2c1C(c1cc(F)ccc1Cl)NC2=O)c1cc(F)cc(C(F)(F)F)c1 (stereo not shown) [Compound I-284] |
| ≤ 0.1 µM | CC(C)(O)COc1cc(NC(=O)c2cc(F)cc(C(F)(F)F)c2)c2c(c1)C(=O)NC2c1cc(F)ccc1Cl (stereo not shown) [Compound I-709] |
| 10 to 100 µM | O=C(Nc1cccc2c1C(c1cccc3c1NCC3)NC2=O)c1cc(F)cc(C(F)(F)F)c1 (stereo not shown) [Compound I-660] |
| 10 to 100 µM | C[C@H](c1nn[nH]c1C(=O)Nc1cccc2c1[C@H](c1cc(F)ccc1Cl)NC2=O)C(F)(F)F (single isomer, unassigned) [Compound I-2269] |
| ≤ 0.1 µM | O=C1NC(c2cc(F)ccc2Cl)c2c(NC(=O)n3ccc4ccccc43)cc(Br)cc21 (stereo not shown) [Compound I-1318] |
| 1 to 10 µM | Cc1ccccc1C1NC(=O)c2cccc(NC(=O)N3CCCc4ccccc43)c21 (stereo not shown) [Compound I-55] |
| 1 to 10 µM | CC(C#N)c1cc(NC(=O)c2cc(F)cc(C(F)(F)F)c2)c2c(c1)C(=O)N[C@@H]2c1cc(F)ccc1Cl (stereo partly shown) [Compound I-2289] |
| ≤ 0.1 µM | N#Cc1cc(NC(=O)c2cc(F)cc(C(F)(F)F)c2)c2c(c1)C(=O)NC2c1cc(F)ccc1Cl (stereo not shown) [Compound I-490] |
| 1 to 10 µM | CCc1cc(C(=O)Nc2cc(Br)cc3c2C(c2ccccc2C)NC3=O)ccc1F (stereo not shown) [Compound I-640] |
| ≤ 0.1 µM | O=C(Nc1cc(OCC(F)F)cc2c1[C@H](c1cc(F)ccc1Cl)NC2=O)c1cc(F)cc(C(F)(F)F)c1 [Compound I-2062] |
| 1 to 10 µM | O=C1N[C@H](c2cc(F)ccc2Cl)c2c(NC(=O)N3C[C@@H](O)c4cc(F)ccc43)cc(-n3nccn3)cc21 (single isomer, unassigned) [Compound I-2344] |
| ≤ 0.1 µM | O=C(Nc1cc(Br)cc2c1C(c1cc(F)ccc1Cl)NC2=O)c1cc(F)c(F)c(Cl)c1 (stereo not shown) [Compound I-564] |
| 10 to 100 µM | O=C1NC(c2cc(F)ccc2Cl)c2c1cc(-c1ccc3ncnn3c1)cc2N1CCNCC1 (stereo not shown) [Compound I-1908] |
| ≤ 0.1 µM | O=C(Nc1cc(-n2ccc3ncccc3c2=O)cc2c1C(c1cc(F)ccc1Cl)NC2=O)c1cc(F)cc(C(F)(F)F)c1 (stereo not shown) [Compound I-1250] |
| ≤ 0.1 µM | C[C@@H](C#N)Oc1cc(NC(=O)c2cc(F)cc(C(F)(F)F)c2)c2c(c1)C(=O)N[C@H]2c1cc(F)ccc1Cl (single isomer, unassigned) [Compound I-2009] |
| ≤ 0.1 µM | O=C1N[C@@H](c2cc(F)ccc2Cl)c2c(NC(=O)N3C[C@@H](O)c4ccccc43)cc(-c3ccc4ncnn4c3)cc21 (single isomer, unassigned) [Compound I-1577] |
| ≤ 0.1 µM | O=C(Nc1cc(C#Cc2cccnc2)cc2c1C(c1cc(F)ccc1Cl)NC2=O)c1cc(F)cc(C(F)(F)F)c1 (stereo not shown) [Compound I-1225] |
| 0.5 to 1 µM | Cc1ccccc1[C@H]1NC(=O)c2cccc(NC(=O)c3csc4ccccc34)c21 [Compound I-4] |

| IC50 | Compound |
| --- | --- |
| 1 to 10 µM | N#CCCc1cc(NC(=O)N2C[C@@H](O)c3cc(F)ccc32)c2c(c1)C(=O)N[C@@H]2c1cc(F)ccc1Cl (single isomer, unassigned) [Compound I-2348] |
| 1 to 10 µM | COc1ccc(F)cc1C(=O)Nc1cc(Br)cc2c1C(c1cc(F)ccc1Cl)NC2=O (stereo not shown) [Compound I-796] |
| 10 to 100 µM | O=C1NC(c2cc(F)ccc2Cl)c2c(NC(=O)C34CCC(C(O)C(F)(F)F)(CC3)C4)cccc21 (stereo not shown) [Compound I-2285] |
| 1 to 10 µM | O=C(Nc1cc(Br)cc2c1[C@@H](c1cc(Cl)ccc1Cl)NC2=O)c1cc(F)cc(C(F)(F)F)c1 [Compound I-764] |
| 1 to 10 µM | O=C1N[C@H](c2cc(F)ccc2Cl)c2c(NC(=O)N3C[C@@H](O)c4ccc(F)cc43)cccc21 (stereo in doubt) [Compound I-2173] |
| 10 to 100 µM | O=C(Nc1cccc2c1C(N1CCCCC1)NC2=O)c1cc(F)cc(C(F)(F)F)c1 (stereo not shown) [Compound I-537] |
| 0.5 to 1 µM | CC1(Cc2cc(NC(=O)N3CC(O)c4cc(F)ccc43)c3c(c2)C(=O)NC3c2cc(F)ccc2Cl)COC1 (stereo not shown) [Compound I-2490] |
| ≤ 0.1 µM | O=C(Nc1cc(-c2ccc3ncnn3c2)cc2c1C(c1cc(F)ccc1Cl)NC2=O)c1cc(F)cc2c1NC(=O)C2(F)F (stereo not shown) [Compound I-1547] |
| 1 to 10 µM | CCC(CC(=O)Nc1cccc2c1C(c1cc(F)ccc1Cl)NC2=O)C(C)C(F)(F)F (stereo not shown) [Compound I-2193] |
| 0.1 to 0.5 µM | Cc1ccccc1[C@H]1NC(=O)c2c(C#N)ccc(NC(=O)c3cc(F)cc(C(F)(F)F)c3)c21 [Compound I-397] |
| 1 to 10 µM | O=C1NC(c2cc(F)ccc2Cl)c2c(NC(=O)C3CCCCC3)cccc21 (stereo not shown) [Compound I-1680] |
| 0.5 to 1 µM | CC(C)(C)C1CCCN1C(=O)Nc1cccc2c1C(c1cc(F)ccc1Cl)NC2=O (single isomer, unassigned) [Compound I-2432] |
| 10 to 100 µM | O=C1NC(c2cc(F)ccc2Cl)c2c(NC(=O)N3CCc4ccc(=O)[nH]c43)cc(Br)cc21 (stereo not shown) [Compound I-1429] |
| 0.5 to 1 µM | O=C1NC(c2cc(F)ccc2Cl)c2c(NC(=O)N3CCc4ccccc43)ccnc21 (stereo not shown) [Compound I-257] |
| 1 to 10 µM | Cc1ccccc1C1NC(=O)c2cccc(NC(=O)c3noc4ccc(F)cc34)c21 (stereo not shown) [Compound I-21] |
| 0.1 to 0.5 µM | O=C(Nc1cccc2c1C(c1cc(F)ccc1Cl)NC2=O)c1csc2c1CCOC2 (stereo not shown) [Compound I-2266] |
| 10 to 100 µM | O=C1CCC[C@H]([C@H]2NC(=O)c3cccc(NC(=O)c4cc(F)cc(C(F)(F)F)c4)c32)C1 (single isomer, unassigned) [Compound I-2252] |
| 1 to 10 µM | Cc1ccccc1C1NC(=O)c2cccc(NC(=O)c3cc(F)cc(C4COC4)c3)c21 (stereo not shown) [Compound I-657] |
| 1 to 10 µM | O=C(Nc1cc(-c2cn[nH]c2)nc2c1[C@@H](c1cc(F)ccc1Cl)NC2=O)c1cc(F)cc(Cl)c1 [Compound I-195] |
| 10 to 100 µM | O=C1NC(c2cc(F)ccc2Cl)c2c(Nc3cn[nH]c3)cc(Br)cc21 (stereo not shown) [Compound I-2056] |
| 1 to 10 µM | O=C(Nc1cc(N2CC(F)(F)C2)nc2c1[C@@H](c1cc(F)ccc1Cl)NC2=O)c1cc(F)cc(C(F)(F)F)c1 [Compound I-367] |
| 10 to 100 µM | O=C1NC(c2cc(F)ccc2Cl)c2c(NC(=O)N3CCC4(CC4)C3)cccc21 (stereo not shown) [Compound I-2468] |
| ≤ 0.1 µM | O=C(Nc1cc(Nc2cn[nH]c2)cc2c1[C@H](c1cc(F)ccc1Cl)NC2=O)c1cc(F)cc(C(F)(F)F)c1 [Compound I-1258] |

| IC50 | Compound |
| --- | --- |
| 10 to 100 µM | Cc1ccccc1[C@H]1NC(=O)c2cccc(NC(=O)c3coc4c(F)cc(F)cc34)c21 [Compound I-97] |
| 0.1 to 0.5 µM | CC(C)(O)COc1cc(NC(=O)c2cc(F)cc(C(F)(F)F)c2)c2c(n1)C(=O)NC2c1cc(F)ccc1Cl (stereo not shown) [Compound I-1421] |
| 1 to 10 µM | O=C1NC(c2cc(F)ccc2Cl)c2c(NC3CNCc4ccccc43)cc(-c3ccc4ncnn4c3)cc21 (stereo not shown) [Compound I-1959] |
| 1 to 10 µM | Cc1c(-c2cc(NC(=O)c3cc(F)cc(C(F)(F)F)c3)c3c(c2)C(=O)N[C@@H]3c2cc(F)ccc2Cl)ccc2ncnn12 [Compound I-1875] |
| ≤ 0.1 µM | CC(C)(O)C(=O)Nc1cc(NC(=O)c2cc(F)cc(C(F)(F)F)c2)c2c(c1)C(=O)NC2c1cc(F)ccc1Cl (stereo not shown) [Compound I-591] |
| 10 to 100 µM | O=C1NC(c2cc(F)ccc2Cl)c2c(NC(=O)C34CCC(CC3)O4)cc(-c3ccc4ncnn4c3)cc21 (stereo not shown) [Compound I-1966] |
| ≤ 0.1 µM | CN1C[C@H](Nc2cc(NC(=O)c3cc(F)cc(C(F)(F)F)c3)c3c(c2)C(=O)NC3c2cc(F)ccc2Cl)CC1=O (single isomer, unassigned) [Compound I-343] |
| 1 to 10 µM | O=C1N[C@H](c2cc(F)ccc2Cl)c2c(NC(=O)N3C[C@H](O)c4cccc(F)c43)cccc21 (single isomer, unassigned) [Compound I-2207] |
| 1 to 10 µM | O=C(Nc1cc(-c2ccc3ncnn3c2)cc2c1[C@H](c1cc(F)c(F)cc1Cl)NC2=O)c1cc(F)cc(C(F)(F)F)c1 [Compound I-1059] |
| 0.5 to 1 µM | O=C(Nc1cccc2c1C(c1cc(F)ccc1Cl)NC2=O)c1cc(O)cc(C(F)(F)F)c1 (stereo not shown) [Compound I-448] |
| ≤ 0.1 µM | CS(=O)(=O)CCc1cc(NC(=O)c2cc(F)cc(C(F)(F)F)c2)c2c(c1)C(=O)NC2c1cc(F)ccc1Cl (stereo not shown) [Compound I-1476] |
| ≤ 0.1 µM | CC(C)Cc1cc(NC(=O)c2cc(F)cc(C(F)(F)F)c2)c2c(c1)C(=O)NC2c1cc(F)ccc1Cl (stereo not shown) [Compound I-293] |
| 10 to 100 µM | O=C(Nc1cc(Br)cc2c1C(c1cc(F)ccc1Cl)NC2=O)c1ccnc(C(F)(F)F)c1 (stereo not shown) [Compound I-523] |
| ≤ 0.1 µM | Cc1ncc(-c2cc(NC(=O)c3cc(F)cc(Cl)c3)c3c(c2)C(=O)N[C@H]3c2cc(F)ccc2Cl)cn1 [Compound I-896] |
| ≤ 0.1 µM | O=C(Nc1cc(-c2cnc3ocnc3c2)cc2c1C(c1cc(F)ccc1Cl)NC2=O)c1cc(F)cc(C(F)(F)F)c1 (stereo not shown) [Compound I-1544] |
| 1 to 10 µM | CCOc1cc(C(=O)Nc2cc(Br)cc3c2C(c2cc(F)ccc2Cl)NC3=O)ccc1F (stereo not shown) [Compound I-556] |
| 10 to 100 µM | CC(C)(CNC(=O)Nc1cc(Br)cc2c1C(c1cc(F)ccc1Cl)NC2=O)C1(O)CCC1 (stereo not shown) [Compound I-1507] |
| 10 to 100 µM | CN1CCC=C(c2cc(-c3ccc4ncnn4c3)cc3c2C(c2cc(F)ccc2Cl)NC3=O)C1 (stereo not shown) [Compound I-2020] |
| 1 to 10 µM | Cc1cccnc1C1NC(=O)c2cccc(NC(=O)c3csc4ccccc34)c21 (stereo not shown) [Compound I-49] |
| 1 to 10 µM | O=C(Nc1cc(F)cc(C(F)(F)F)c1)c1cccc2c1C(c1cc(F)ccc1Cl)NC2=O (stereo not shown) [Compound I-1353] |
| 10 to 100 µM | NC(=O)CC(=O)Nc1cc(-c2ccc3ncnn3c2)cc2c1C(c1cc(F)ccc1Cl)NC2=O (stereo not shown) [Compound I-1983] |
